Each structure is given as a SMILES string.

One data set has as its target FAK kinase (Homo sapiens, UniProt Q05397). Description: FAK kinase activity inhibition assay, method A (HTRF) and method B (Lantha screen). Type of data set: biochemical. The method, then: The HTRF method was used to evaluate the inhibitory activity of the compounds against FAK kinase. […]. The reaction conditions were: FAK kinase at 0.1 ng/µL; ATP 10 µM; substrate concentration 1 µM. Compounds were serially diluted in DMSO and shaken on a shaker for 20 minutes. Prepare 2× kinase using 1× reaction buffer. Transfer 25 nL compound to a 384-well plate using Echo 655. Add 2.5 µL kinase per well. Seal the plate with sealing film, centrifuge at 1000 rpm for 60 seconds, and incubate at 25°C for 12 hours. Prepare 2× ATP/substrate mix using 1× enzyme reaction buffer and add 2.5 µL 2× ATP/substrate mix per well. Seal the plate with sealing film, centrifuge at 1000 rpm for 60 seconds, and incubate at 25°C for 50 minutes. Prepare 2×XL665 & antibody solution using HTRF detection buffer, and add 5 µL per well. Incubate at 25°C for 60 minutes. Read fluorescence at 620 nm (Cryptate) and 665 nm (XL665). Calculate the ratio per well (Ratio_665/620 nm). % Inhibition = 100% - [(Compound Ratio - Positive Control Ratio)/ (Negative Control Ratio - Positive Control Ratio)] × 100%. IC50 values (half-maximal inhibitory concentration) were calculated by nonlinear regression using GraphPad Prism 7.0. Y = Bottom + (Top - Bottom)/ (1 + 10^ ((LogIC50 - X) × Hill Slope)), where X is the log of compound concentration and Y is the % inhibition.
The Lantha screen assay was used to evaluate the FAK kinase inhibitory activity. Compounds were dissolved in 100% DMSO at 10 mM stock concentration. Prepare 1× kinase buffer (25 mM HEPES, pH 7.5, 0.01 mM Triton, 0.5 mM EGTA, 0.01% Brij-35). Dilute compounds in a gradient, and transfer 5 µL compound into the reaction plate. Prepare 2× kinase solution with 1× Kinase buffer. Add 5 µL kinase solution to compound and positive control wells, and 5 µL 1× Kinase buffer to negative control wells. Mix reaction plate by shaking. Prepare 4× ATP/Fluorescein-polyGT substrate mix with 1× Kinase buffer. Add 2.5 µL substrate solution to initiate the reaction. Shake and incubate at room temperature for 30 minutes. Prepare 2× detection reagent (2 nM antibody, 10 mM EDTA) and add 10 µL per well to stop the reaction. Briefly centrifuge, mix, and incubate for 60 minutes. Read fluorescence at 340 nm excitation and 520 nm/495 nm emission using EnVision. Collect data and calculate 520 nm/495 nm ratio. Calculate the inhibition percentage using the formula: % Inhibition = (Max - Sample Ratio)/(Max - Min) × 100, where min is the mean of negative control wells (no enzyme activity), and max is the mean of positive control wells (DMSO-inhibited conversion rate).Use XLFit Excel add-in version 5.4.0.8 to determine the IC50 values of each compound against the enzyme activity: Y = Bottom + (Top - Bottom)/(1 + (IC50/X)^HillSlope).
On the technique in general: Time-resolved FRET reads energy transfer from a long-lived donor to a nearby acceptor.

Data set [1] in a line: Pharmacokinetic study in rats. Conditions: rat, plasma, po, 3 mg/kg.
Method: Pharmacokinetic parameters were calculated by statistical moment method using WinNonLin 8.0 software, mainly including Tmax, T1/2, Cmax and AUC0-24h.
Animals: Three male SD rats weighing 200-220 g were used. After purchase, they were housed in the laboratory animal center for 2 days before experiment. […] Blood samples were collected at scheduled time points after oral gavage.
Vehicle: 0.4% ethanol + 0.4% Tween 80 + 99.2% (0.5% methylcellulose M450). Preparation of oral gavage solution: The compound was accurately weighed and dissolved in vehicle by ultrasonication for 5 min at room temperature to prepare 0.3 mg/mL drug solution.
Single compound administration was also used to study pharmacokinetics in rats.
Blood sample collection: After oral gavage, blood samples were collected from orbital sinus at 0.25, 0.5, 1, 2, 4, 8, 10 and 24 h. 50 µL plasma was mixed with 200 µL acetonitrile (containing 2 ng/mL verapamil as internal standard). The mixture was vortexed for 3 min, then centrifuged at 20000 rcf for 10 min at 4 °C. The supernatant was analyzed by LC-MS/MS.
Standard curves were established by accurately weighing and preparing compounds at different concentrations for mass spectrometric quantification. Compound concentrations in plasma samples were determined based on standard curves to obtain concentration-time profiles. All measurement data were collected and processed by relevant software. Pharmacokinetic parameters (including Tmax, T1/2, Cmax and AUC0-24h) were calculated by statistical moment method.

Chain of FAK kinase (Q05397 whole entry): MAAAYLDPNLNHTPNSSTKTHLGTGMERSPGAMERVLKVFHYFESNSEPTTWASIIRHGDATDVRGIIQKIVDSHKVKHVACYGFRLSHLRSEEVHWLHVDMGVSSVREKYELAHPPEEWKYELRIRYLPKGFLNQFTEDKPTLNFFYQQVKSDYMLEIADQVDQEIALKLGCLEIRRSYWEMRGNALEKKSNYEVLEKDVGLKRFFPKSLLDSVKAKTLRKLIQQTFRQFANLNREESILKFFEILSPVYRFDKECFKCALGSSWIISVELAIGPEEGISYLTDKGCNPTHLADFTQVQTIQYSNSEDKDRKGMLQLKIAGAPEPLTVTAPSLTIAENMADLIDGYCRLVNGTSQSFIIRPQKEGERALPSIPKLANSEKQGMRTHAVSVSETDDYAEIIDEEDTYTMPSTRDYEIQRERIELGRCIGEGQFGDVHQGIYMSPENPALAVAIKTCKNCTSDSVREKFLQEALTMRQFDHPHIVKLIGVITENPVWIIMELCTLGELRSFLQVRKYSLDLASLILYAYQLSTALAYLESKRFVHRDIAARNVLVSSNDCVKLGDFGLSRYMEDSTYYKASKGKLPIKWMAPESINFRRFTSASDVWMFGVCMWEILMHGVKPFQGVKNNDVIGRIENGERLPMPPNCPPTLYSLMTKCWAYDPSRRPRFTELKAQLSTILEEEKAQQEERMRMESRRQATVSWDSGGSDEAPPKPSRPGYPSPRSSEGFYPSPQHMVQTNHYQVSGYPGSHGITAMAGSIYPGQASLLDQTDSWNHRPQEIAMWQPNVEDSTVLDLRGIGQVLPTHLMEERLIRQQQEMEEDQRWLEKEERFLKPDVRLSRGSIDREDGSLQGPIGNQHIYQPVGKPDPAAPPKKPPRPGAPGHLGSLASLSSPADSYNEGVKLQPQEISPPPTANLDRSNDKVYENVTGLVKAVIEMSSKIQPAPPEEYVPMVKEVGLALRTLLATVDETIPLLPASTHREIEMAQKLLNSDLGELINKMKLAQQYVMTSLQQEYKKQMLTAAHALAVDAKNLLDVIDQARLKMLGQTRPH

As usually defined, the IC50 is the concentration at which inhibition is half-maximal. A lower IC50 goes with higher potency. For orientation: AUC(0-t) means exposure summed from dosing to a finite time, without extrapolation to infinity. A low value points to low exposure. Usually Cmax stands for the peak of the concentration-time curve. What is called Tmax is the time at which the peak concentration occurs. Broadly, the half-life is the time in which the quantity being followed falls by half. Low readings indicate fast loss, high ones slow loss. In turn, `COc1cc2c(cc1Nc1ncc(Cl)c(Nc3ccccc3S(=O)(=O)C(C)C)n1)OC[C@@H]1CN(C3CCOCC3)CCN21` [Compound C1S] yielded an IC50 at FAK kinase of less than 1 nM. Also, in data set [1], the AUC(0-t) at 24 h was 136 ng·h/mL, the peak concentration (Cmax) worked out at 61.8 ng/mL, the Tmax was 0.83 h and the half-life was 1.78 h.

On to `COc1cc2c(cc1Nc1ncc(Cl)c(Nc3ccccc3S(=O)(=O)C(C)C)n1)OC[C@@H]1CN(C3CCN(C)CC3)CCN21` [Compound C2S], for which the IC50 at FAK kinase is less than 1 nM. Moreover, in data set [1], the AUC(0-t) at 24 h turned out to be 1970 ng·h/mL, the concentration peaked (Cmax) at 135 ng/mL, the Tmax came out at 10 h and the half-life is 9.2 h.

In turn, `CNC(=O)c1ccccc1Nc1cc(Nc2cc3c(cc2OC)N2CCN(C4CCN(C)CC4)C[C@@H]2CO3)ncc1C(F)(F)F` [Compound D2R] had an IC50 against FAK kinase of less than 1 nM.

`CNC(=O)c1ccccc1Nc1cc(Nc2cc3c(cc2OC)N2CCN(C4CCN(C)CC4)C[C@H]2CO3)ncc1C(F)(F)F` [Compound D2S] came in with an IC50 at FAK kinase of less than 0.5 nM. Moreover, in data set [1], the area under the curve AUC(0-t) at 24 h is 1470 ng·h/mL, the maximum concentration (Cmax) worked out at 134 ng/mL, the Tmax turned out to be 3.33 h and the half-life is 5.97 h.

In turn, `CNC(=O)c1ccccc1Nc1cc(Nc2cc3c(cc2OC)N2CCN(C4CN(C)C4)C[C@H]2CO3)ncc1C(F)(F)F` [Compound D4S] yielded an IC50 on FAK kinase of less than 1 nM. Also, in data set [1], the AUC(0-t) at 24 h came out at 1660 ng·h/mL, the concentration peaked (Cmax) at 241 ng/mL, the Tmax amounted to 5.33 h and the half-life was 3.03 h.

The record behind these values is patent EP4653444A1, “FUSED TRICYCLIC COMPOUND AS KINASE INHIBITOR” (Hangzhou Innogate Pharma Co., Ltd., priority 2023, dated 2024).
